{"source": "patent US20040019088A1", "about": "“Use of Epothilones in the treatment of brain diseases associated with proliferative processes” (Schering AG, priority 2002, published 2004)", "key": {"[1]": {"assay": "Mouse bolus injection assay (blood and brain levels of Epothilones)", "details": "for Brain plasma ratio: after 20 min, iv application; for concentration at 10 min / concentration at 20 min / concentration at 40 min / AUC(0-t) / Kp: male, SCID, mouse, in vivo, 5 mg/kg; for AUC(0-t) / Kp: iv", "procedure": "Mouse Bolus Injection Assay\n(In Vivo Assay for the Evaluation of Blood and Brain Levels of Epothilones)\nMale SCID mice (20-25 g, non-leaky) were treated with a single dose of tritium-labeled Epothilones and paclitaxel (5 mg/kg; 7.4 MBq/mg; in 30% Hydroxypropyl-β-cyclodextrin (HPβCD)/NaCl iv bolus injection). Partitioning of radioactivity between blood and brain was measured by liquid scintillation counting (LSC) and HPLC-radioflow at three time points (10, 20 and 40 min) after injection."}, "[2]": {"assay": "Tolerability (deaths, body weight change) in the U373 glioma study", "assay_type": "in vivo, NMRI nu/nu-mice", "details": "for BWC d 7-17 (Body Weight Change) / Deaths/total (d): NMRI nu/nu-mice", "procedure": "(§1) Female NMRI nu/nu-mice (20-28 g) were used for this experiment. Human U373 glioma cells were implanted s.c. (1×10^7/mouse) as well as i.cer. (2×10^5/mouse) on day 0. Treatment was started on day 7 when the s.c. tumors were approximately 0,05 cm^3 in size. […] After termination of the experiment, the size of the brain tumors was determined (Table 2)."}, "Human U373 glioma cells": {"system": "Human U373 glioma cells", "assay": "In vivo efficacy against xenografted (s.c.) and intracerebral human glioma", "details": "for i. cer. Brain Tumor Volume d 32: i.cer. U373 in NMRI nu/nu-mice; for RTV s.c. Tumors d 25 (Relative Tumor Volume): s.c. U373 in NMRI nu/nu-mice", "procedure": "In vivo assay for the evaluation of efficacy of Epothilones against xenografted and intracerebral human glioma.\nas §1"}, "[3]": {"details": "in vivo; cited from earlier work"}, "[4]": {"details": "5 mg/kg iv bolus, 3H-labeled, male SCID mice"}, "[5]": {"details": "10 min after 5 mg/kg iv bolus, 3H-labeled, male SCID mice"}, "[6]": {"details": "20 min after 5 mg/kg iv bolus, 3H-labeled, male SCID mice"}, "[7]": {"details": "40 min after 5 mg/kg iv bolus, 3H-labeled, male SCID mice"}, "[8]": {"details": "Group B: 9 mg/kg i.v., days 7, 14"}, "[9]": {"details": "Group C: 2 mg/kg i.v., days 7, 9, 11, 14, 16, 18"}, "[10]": {"details": "both schedules (groups B and C) vs. untreated control"}}, "note": "“And” between values parts separate entries of the source, which are not always exact repeats. Equal entries are not always repeated. Marks after values point to notes of the source that are not given here."}
{"smiles": "CCCC1C(=O)C(C)(C)C(O)CC(=O)OC(C(C)=Cc2csc(C)n2)CC=C(C)CCCC(C)C1O", "note": "(stereo not drawn) [Compound 1, 4,8-dihydroxy-16-(1-methyl-2-(2-methyl-4-thiazolyl)-ethenyl)-1-oxa-7-(1-propyl)-5,5,9,13-tetramethyl-cyclohexadec-13-ene-2,6-dione]", "values": [{"measurement": "Brain AUC (0-40 min)", "setting": "[1]; [4]", "value": 21, "unit": "µg·min/mL"}, {"measurement": "Brain plasma ratio", "setting": "[1]", "value": "higher brain plasma ratio"}, {"measurement": "concentration at 10 min", "setting": "[1]", "value": "800 ng/mL and 300 ng/g"}, {"measurement": "concentration at 20 min", "setting": "[1]", "value": "600 ng/mL and 800 ng/g"}, {"measurement": "concentration at 40 min", "setting": "[1]", "value": "300 ng/mL and 600 ng/g"}, {"measurement": "AUC(0-t)", "setting": "[1]", "value": 333, "unit": "ng·h/mL"}, {"measurement": "Kp", "setting": "[1]", "value": 1}]}
{"smiles": "CCCC1C(=O)C(C)(C)C(O)CC(=O)OC(C(C)=Cc2csc(C)n2)CC2OC2(C)CCCC(C)C1O", "note": "(stereo not drawn) [Compound 2]", "values": [{"measurement": "Brain AUC (0-40 min)", "setting": "[1]; [4]", "value": 35, "unit": "µg·min/mL"}, {"measurement": "Plasma AUC (0-40 min)", "setting": "[1]; [4]", "value": 31, "unit": "µg·min/mL"}, {"measurement": "Brain conc. mean", "setting": "[1]; [5]", "value": 1.1, "unit": "µg/g"}, {"measurement": "Plasma conc. mean", "setting": "[1]; [5]", "value": 1600, "unit": "ng/mL"}, {"measurement": "Brain conc. mean", "setting": "[1]; [6]", "value": 1.1, "unit": "µg/g"}, {"measurement": "Plasma conc. mean", "setting": "[1]; [6]", "value": 700, "unit": "ng/mL"}, {"measurement": "Brain conc. mean", "setting": "[1]; [7]", "value": 0.8, "unit": "µg/g"}, {"measurement": "Plasma conc. mean", "setting": "[1]; [7]", "value": 300, "unit": "ng/mL"}, {"measurement": "Brain plasma ratio", "setting": "[1]", "value": "higher brain plasma ratio"}, {"measurement": "AUC Ratio Brain/Plasma", "setting": "[1]; partial AUC 0-40 min, 5 mg/kg iv bolus, male SCID mice", "value": 1.2}]}
{"smiles": "C=CCC1C(=O)C(C)(C)C(O)CC(=O)OC(c2ccc3sc(C)nc3c2)CC2OC2(C)CCCC(C)C1O", "note": "(stereo not drawn) [Compound 3, 7,11-dihydroxy-3-(2-methylbenzothiazol-5-yl)-10-(prop-2-en-1-yl)-8,8,12,16-tetramethyl-4,17-dioxabicyclo[14.1.0]heptadecane-5,9-dione]", "values": [{"measurement": "BWC d 7-17 (Body Weight Change)", "setting": "[2]; [8]", "value": "−7", "unit": "%"}, {"measurement": "Deaths/total (d)", "setting": "[2]; [8]", "value": "0/10"}, {"measurement": "BWC d 7-17 (Body Weight Change)", "setting": "[2]; [9]", "value": "−3", "unit": "%"}, {"measurement": "Deaths/total (d)", "setting": "[2]; [9]", "value": "1/10"}, {"measurement": "Body weight loss", "setting": "[2]; treatment groups B and C", "value": "Only a moderate body weight loss (not significant)"}, {"measurement": "i. cer. Brain Tumor Volume d 32", "setting": "Human U373 glioma cells; [8]", "value": "0.002* mm^3"}, {"measurement": "RTV s.c. Tumors d 25 (Relative Tumor Volume)", "setting": "Human U373 glioma cells; [8]", "value": 1.15}, {"measurement": "i. cer. Brain Tumor Volume d 32", "setting": "Human U373 glioma cells; [9]", "value": 0.96, "unit": "mm^3"}, {"measurement": "RTV s.c. Tumors d 25 (Relative Tumor Volume)", "setting": "Human U373 glioma cells; [9]", "value": 1.40}, {"measurement": "Therapeutic effect on i.cer. U373 brain tumors", "setting": "Human U373 glioma cells; [10]", "value": "significant therapeutic effect"}, {"measurement": "Therapeutic effect on s.c. U373 tumors", "setting": "Human U373 glioma cells; [10]", "value": "significant therapeutic effect"}, {"measurement": "Brain AUC (0-40 min)", "setting": "[1]; [4]", "value": 20, "unit": "µg·min/mL"}, {"measurement": "concentration at 10 min", "setting": "[1]", "value": "1200 ng/mL and 900 ng/g"}, {"measurement": "concentration at 20 min", "setting": "[1]", "value": "700 ng/mL and 300 ng/g"}, {"measurement": "concentration at 40 min", "setting": "[1]", "value": "300 ng/mL and 600 ng/g"}, {"measurement": "AUC(0-t)", "setting": "[1]", "value": 417, "unit": "ng·h/mL"}, {"measurement": "Kp", "setting": "[1]", "value": 0.8}]}
{"smiles": "CC(=O)O[C@H]1C(=O)[C@@]2(C)[C@H]([C@H](OC(=O)c3ccccc3)[C@]3(O)C[C@H](OC(=O)[C@H](O)[C@@H](NC(=O)c4ccccc4)c4ccccc4)C(C)=C1C3(C)C)[C@]1(OC(C)=O)CO[C@@H]1C[C@@H]2O", "note": "[Paclitaxel, reference compound]", "values": [{"measurement": "Ability to penetrate the BBB", "setting": "[3]", "value": "only low ability to penetrate the BBB"}, {"measurement": "Brain AUC (0-40 min)", "setting": "[1]; [4]", "value": 0, "unit": "µg·min/mL"}, {"measurement": "Brain conc. mean", "setting": "[1]; [5]", "value": "<LOQ"}, {"measurement": "Brain conc. mean", "setting": "[1]; [6]", "value": "<LOQ"}, {"measurement": "Brain conc. mean", "setting": "[1]; [7]", "value": "<LOQ"}, {"measurement": "Detection in the brain", "setting": "[1]; 40 minutes after application", "value": "detected in the brain in considerable amounts"}, {"measurement": "Concentration in brain samples", "setting": "[1]; all brain samples (10, 20, 40 min)", "value": "below the limit of quantitation"}, {"measurement": "concentration at 10 min", "setting": "[1]", "value": 800, "unit": "ng/mL"}, {"measurement": "concentration at 20 min", "setting": "[1]", "value": 600, "unit": "ng/mL"}, {"measurement": "concentration at 40 min", "setting": "[1]", "value": 200, "unit": "ng/mL"}, {"measurement": "AUC(0-t)", "setting": "[1]", "value": 317, "unit": "ng·h/mL"}]}
